Data on 10 compounds can be found in patent publication US20250064775A1, “SELECTIVE ELIMINATION OF SENESCENT CELLS BY FERROPTOSIS INDUCTION” (Trustees of Tufts College, priority 2022, published 2025).

The subject of test [1] is PTGES, ALOX5, LTC4S, LTA4H and ALOX5AP mRNA in liver. Briefly: Liver oxylipin synthase mRNAs by qPCR in chemotherapy-induced senescence model. In kind it is in vivo, p16-3MR mice. Conditions: FIG. 3B. The method, then: A. IMR-90 cells were proliferative in 10% serum, made quiescent by incubation for 3 days in 0.2% serum, or made senescent by treatment with 10 Gy X-rays (IR) or ethidium bromide to induce mitochondrial-dysfunction induced senescence (MiDAS). Lipids were extracted from proliferating (PRO—10%), quiescent (QUI—0.2%), IR-induced senescent (SEN(IR)—10% or 0.2% serum), or mitochondrial dysfunction-associated senescent (MiDAS-0.2%) cells and analyzed by liquid chromatography combined with mass spectrometry (LC-MS). Putative oxylipins (A) were detected in control and senescent cells. B. p16-3MR mice were given a single dose (10 mg/kg) of doxorubicin (DOXO) or phosphate-buffered saline (PBS) by intraperitoneal (i.p.) injection. After 5 days, mice were given GCV (25 mg/kg) or vehicle by i.p. injection for 5 consecutive days. Livers were harvested on day 10 and analyzed for oxylipin synthase mRNAs by qPCR. Heat maps indicate averages of at least 5 mice (*=p<0.05, 1-way ANOVA). C. C57BL/6 mice were aged for 6 (young) or 24 (old) months. Kidneys were harvested from mice and analyzed for oxylipin synthase RNA levels by qPCR.
Briefly, mice were treated with either control (phosphate buffered saline, (PBS)), doxorubicin (DOXO), or the combination of DOXO and ganciclovir (GCV). GCV is known to eliminate senescent cells in the liver at the concentrations administered, i.e., 25 mg/kg.

In a further test the test system is senescent cells. Briefly: Ferroptosis induction in senescent relative to non-senescent cells (general statement). In kind it is cell-based. The settings on record: general statement in description. The source says:
While many of these oxylipins can drive pathology, such as in the case of pulmonary fibrosis, this may also result in a vulnerability that allows them to be targeted for elimination. Among the oxylipin synthesis enzymes elevated during senescence are arachidonate 5-, 12-, 15-, and 15B-lipoxygenases (ALOX5, 12, 15, and 15B), as well as ALOX5 activating protein (ALOX5AP). These lipoxygenases produce oxylipins, such as the leukotrienes, by acting on free arachidonic acid inside of the cell. However, these enzymes may also peroxidize arachidonic acid that is bound (esterified) in the plasma membrane. Lipid peroxides then react with labile iron in the cytosol via Fenton reaction to result in an exponential chain reaction of lipid peroxidation, ultimately resulting in a form of cell death known as “ferroptosis”. […] Other compounds, such as artemisinin and its derivatives interact with labile iron to increase lipid peroxidation. Since senescent cells also show elevated levels of labile iron, in addition to lipoxygenases, these cells are especially sensitive to induction of ferroptosis. […] As used herein, “senolytic” refers to the property of a molecule, compound, or composition to selectively kill senescent cells. Thus, ML-210, RSL3, FIN56, erastin, artemisinin, and related molecules are useful for the treatment of chronic degenerative diseases that are characterized by cellular senescence.

Test [2] deals with senescent cells induced with 10 Gy of IR. Briefly: Cell survival (CCK8) of IR-induced senescent cells vs non-senescent controls. Format: cell-based. The method, then: (§1) A. RNA levels of GPX4 in cells induced to senesce by ionizing radiation (IR), mitochondrial dysfunction (MiDAS), or lentiviral overexpression of […] [SEN(RAS)]. Non-senescent cells induced by either mock treatment (NS) or empty lentiviral vector (Vector) served as controls. RNA levels measure by quantitative RT-PCR and normalized to actin. B—C. Cells were induced to senesce by 24 h of treatment with 250 nM doxorubicin [SEN(DOXO)] or control [NS (DMSO)], and 10 days later were given the indicated drug doses for 24 h. D. Cells were induced to senesce with 10 Gy of IR and 10 days later given the indicated drug doses for 24 h. E-F. Cells were induced to senesce with 10 Gy of IR and 10 days later given the indicated drug doses for 72 h. Cell survival was then measured by colorimetric assay (CCK8). *=p<0.01
Preliminary data: Senescent cells appear primed to undergo ferroptosis. Not only do they elevate ALOX enzymes (FIG. 1A) and PUFA levels (FIG. 1B), but the lipid hydroxide products of these enzymes are elevated (FIG. 1C), as are byproducts of lipid peroxidation, (e.g. 4-HNE and 4-HDDE (FIG. 1D)). Lipid peroxidation-sensitive probes, e.g., C11-BODIPY, indicate increased lipid peroxidation during senescence. Furthermore, senescent cells accumulate iron in their cytosol. […]

For test [3], the system named is IR-induced senescent [SEN(IR)] cells. Briefly: Rescue of RSL3-induced ferroptosis in IR-induced senescent cells (CCK8 survival). Format: cell-based. The method, then: Non-senescent (NS: mock irradiated) or IR-induced senescent [SEN(IR)] cells were treated 10 days after irradiation with […] RSL3 and the indicated ferroptosis antagonist, followed by cell survival measurement by CCK8 assay. A. Cells were treated with ferrostatin-1 (FSN1—1 μM) at the same time as RSL3. B. Cells were given the ALOX5 and ALOX15 inhibitor zileuton (Zil—50 μM) at the same time as RSL3. C. Cells were given iron chelators deferoxamine (DFX—25 μM) or salicylaldehyde isonicotinoyl hydrazine (SIH—100 μM) at the same time as RSL3. D. Cells were given ACSL4 inhibitors rosiglitazone (ROSI—100 μM) or PRGL493 (PRGL—100 μM) for 72 h prior to RSL3. ***=p<0.001
The inventor next sought to further elucidate the potential mechanisms for induction of ferroptosis in senescent cells by the disclosed senolytic drugs. The inventor rescued ferroptosis in senescent cells induced by contacting the cells with RSL3 and ferrostatin-1 (FSN1), which inhibits lipid peroxidation (FIG. 6A), zileuton (5- and 15-lipoxygenase inhibitor), which protects cells from lipoxygenase-induced membrane peroxidation (FIG. 6B), iron chelators deferoxamine or salicylaldehyde isonicotinoyl hydrazine (FIG. 6C), and ACSL4 inhibitors rosiglitazone or PRGL493 (FIG. 6D).

Test [4] relates to senescent cells [SEN(DOXO)]. Briefly: Cell survival (CCK8) of doxorubicin-induced senescent cells vs non-senescent controls. Format: cell-based. Conditions: SEN(DOXO) (250 nM doxorubicin 24 h) vs NS (DMSO); drug given 10 days later for 24 h; FIG. 5B-C. The method, then: as §1, with “*=p<0.01 Preliminary data: Senescent cells appear primed to undergo ferroptosis. Not only do they elevate ALOX enzymes (FIG. 1A) and PUFA levels (FIG. 1B), but the lipid hydroxide products of these enzymes are elevated (FIG. 1C), as are byproducts of lipid peroxidation, (e.g. 4-HNE and 4-HDDE (FIG. 1D)). Lipid peroxidation-sensitive probes, e.g., C11-BODIPY, indicate increased lipid peroxidation during senescence. Furthermore, senescent cells accumulate iron in their cytosol. […]” for “*=p<0.01”

The mark [5] stands for this setting: given at the same time as 0.1 mM RSL3, FSN1 1 μM, Zil 50 μM, DFX 25 μM, SIH 100 μM, FIG. 6A-C.

Take `COc1cccc2c1C(=O)c1c(O)c3c(c(O)c1C2=O)C[C@@](O)(C(=O)CO)C[C@@H]3O[C@H]1C[C@H](N)[C@H](O)[C@H](C)O1` [DOXO, doxorubicin]: the “liver mRNA levels of PTGES, ALOX5, LTC4S, LTA4H and ALOX5AP” value in test [1] (single dose 10 mg/kg i.p. vs PBS, livers harvested day 10) is reported as “DOXO-dependent increase in the mRNA levels”.
On to `O=S(=O)(NC1CCCCC1)c1ccc2c(c1)C(=NO)c1cc(S(=O)(=O)NC3CCCCC3)ccc1-2` [FIN56], for which, in the test with senescent cells, the “selective induction of ferroptosis in senescent cells relative to non-senescent cells” value was “selectively induces ferroptosis in senescent cells relative to non-senescent cells”.
On to `Nc1nc(O)c2ncn(COC(CO)CO)c2n1` [GCV, ganciclovir], for which the “effect on DOXO-dependent increase of liver mRNA levels of PTGES, ALOX5, LTC4S, LTA4H and ALOX5AP” value in test [1] (25 mg/kg i.p. for 5 consecutive days, 5 days after DOXO) is on record as “abrogates the DOXO-dependent increase in the mRNA levels”.
In the case of `Cc1onc(C(=O)N2CCN(C(c3ccc(Cl)cc3)c3ccc(Cl)cc3)CC2)c1[N+](=O)[O-]` [ML-210], the “selective induction of ferroptosis in senescent cells (cell survival, CCK8)” value in test [2] (10 Gy IR senescent vs non-senescent (NS) cells, drug given 10 days later for 24 h, FIG. 5D) was “selectively induced ferroptosis in senescent cells and not control non-senescent (NS) cells”. In addition, the “selective induction of ferroptosis in senescent cells relative to non-senescent cells” value in the test on senescent cells was “selectively induces ferroptosis in senescent cells relative to non-senescent cells”.
Regarding `CC(=O)NC1=NC(c2cn(-c3ccccc3)nc2-c2ccc(C)o2)n2c(nc3ccccc32)N1` (stereo not drawn) [PRGL493], the “rescue of RSL3-induced ferroptosis in senescent cells (cell survival, CCK8)” value (“rescue of RSL3-induced ferroptosis” below) in test [3] (given for 72 h prior to 0.1 mM RSL3, ROSI 100 μM, PRGL 100 μM, FIG. 6D) is reported as “rescued induction of ferroptosis in senescent cells”.
In the case of `COC(=O)c1ccc([C@H]2c3[nH]c4ccccc4c3CC(C(=O)OC)N2C(=O)CCl)cc1` (stereo partly drawn) [RSL3], the “selective killing of senescent cells (cell survival, CCK8)” value in test [4] is listed as “selectively killed senescent cells”. Further, in the test on senescent cells, the “selective induction of ferroptosis in senescent cells relative to non-senescent cells” value was “selectively induces ferroptosis in senescent cells relative to non-senescent cells”.
In the case of `C[C@@H]1CC[C@H]2[C@@H](C)C(=O)O[C@@H]3O[C@@]4(C)CC[C@@H]1[C@]32OO4` [artemisinin], the “cell death in senescent cells vs control cells (cell survival, CCK8)” value in test [2] (10 Gy IR, drug given 10 days later for 72 h, several concentrations, FIG. 5E-5F) was “induced significantly more cell death in senescent cells than control cells”.
Turning to `CCOC(=O)c1ccc(NC2CCCCC2)c(N)c1` [ferrostatin-1], the “rescue of RSL3-induced ferroptosis” value in test [3] (setting [5]) was “rescued induction of ferroptosis in senescent cells”.
For `CC(c1cc2ccccc2s1)N(O)C(N)=O` (stereo not drawn) [zileuton], the “rescue of RSL3-induced ferroptosis” value in test [3] (setting [5]) is listed as “rescued induction of ferroptosis in senescent cells”.
On to salicylaldehyde isonicotinoyl hydrazine, for which the “rescue of RSL3-induced ferroptosis” value in test [3] (setting [5]) is recorded as “rescued induction of ferroptosis in senescent cells”.
